Measurements published in ChEMBL document CHEMBL5537149, “Design, synthesis, and lead optimization of piperazinyl-pyrimidine analogues as potent small molecules targeting the viral capping machinery of Chikungunya virus” (Eur J Med Chem, 2024).
Values after ≈ are worked out from the molar mass of the structure shown.

Legend:
[1] = Selectivity index, ratio of CC50 for cytotoxicity against African green monkey Vero cells to EC50 for antiviral activity against Chikungunya virus infected in African green monkey Vero cells assessed as reduction in viral induced cell death; format: toxicity, cell-based; conditions: read-out: Ratio CC50/EC50
[2] = test system: Caco-2; assay: Induction of apoptosis in human Caco-2 cells assessed as increase in caspase-3 expression at 6.25 to 100 uM incubated for 72 hrs by Western blot analysis; format: toxicity, cell-based; conditions: caco-2, 72 h, dose 6.25-100 µM
[3] = test system: Caco-2; assay: Induction of apoptosis in human Caco-2 cells assessed as increase in PARP expression at 6.25 to 100 uM incubated for 72 hrs by Western blot analysis; format: toxicity, cell-based; conditions: caco-2, 72 h, dose 6.25-100 µM
[4] = Cytotoxicity against African green monkey Vero cells assessed as reduction in overall metabolic activity incubated for 5 days by MTS reagent based absorbance method; format: toxicity, cell-based; conditions: chlorocebus sabaeus, time 5 day
[5] = Aqueous solubility of compound at pH 7.4 by HPLC analysis; format: physicochemical
[6] = test system: Chikungunya virus; assay: Antiviral activity against Chikungunya virus infected in African green monkey Vero cells assessed as reduction in viral induced cell death incubated for 5 days by MTS reagent based absorbance method; format: functional, organism-based; conditions: 120 h
[7] = test system: Caco-2; assay: Cytotoxicity against human Caco-2 cells incubated for 24 to 72 hrs by MTT assay; format: toxicity, cell-based; conditions: time 24-72 hrs
[8] = Metabolic stability in human liver microsomes assessed as half-life preincubated for 5 mins followed by NADPH addition and measured upto 60 mins by HPLC-MS/MS analysis; format: ADME, Microsome; conditions: time < 65 min
[9] = test system: Chikungunya virus; assay: Fold resistance , ratio of EC50 for antiviral activity against CHVB-resistant Chikungunya virus infected in African green monkey Vero cells to EC50 for antiviral activity against wildtype Chikungunya virus 899 infected in African green monkey Vero cells; format: functional
[10] = test system: Chikungunya virus; assay: Antiviral activity against Chikungunya virus 899 infected in African green monkey Vero cells assessed as reduction in viral RNA replication preincubated for 2 hrs with subsequent viral infected followed by media replacement with compound and measured after 48 hrs by qRT-PCR analysis; format: functional, organism-based; conditions: dose 0.25-60 µM, time 50.0 hrs

SMILES	selectivity ratio [1]	Activity [2]	Activity [3]	CC50 at 120 h [4] [µM]	solubility [5] [µM]	EC50 [6] [µM]	Activity [7]	half-life [8] [min]	Ratio EC50 [9]	Activity [10]
CCNc1nc(C)cc(N2CCN(C(=O)c3ccc(I)cc3)CC2)n1	82	Non-Toxic	Non-Toxic	58	112 (≈ 50.5 µg/mL)	0.7	Non-Toxic	> 60	–	–
CCNc1ccnc(N2CCN(C(=O)c3ccc(F)cc3)CC2)n1	47	–	–	183	> 120	3.9	–	> 60	–	–
CCNc1nc(C)cc(N2CCN(C(=O)c3ccccc3)CC2)n1	> 150	–	–	> 308	> 120	2.05	–	> 60	–	–
CCNc1cc(C)nc(NC2CCN(C(=O)c3cc(Cl)cc(Cl)c3)CC2)n1	2.02	–	–	25	94 (≈ 38.4 µg/mL)	12	–	30	–	–
CCNc1nc(C)cc(N2CCN(S(=O)(=O)c3ccc(Cl)cc3)CC2)n1	3.9	–	–	11	104 (≈ 41.2 µg/mL)	2.76	–	49	–	–
CCNc1nc(C)cc(N2CCN(C(=O)c3cccc(C(F)(F)F)c3)CC2)n1	60	–	–	80	> 120	1.3	–	> 60	–	–
CCNc1cc(C)nc(N2CCN(C(=O)c3ccc(Br)cc3)CC2)n1	> 10	–	–	> 100	116 (≈ 46.9 µg/mL)	9.58	–	> 60	–	–
Cc1cc(N2CCN(S(=O)(=O)c3ccc(Cl)cc3)CC2)nc(NC(C)C)n1	4.9	–	–	19	76 (≈ 31.2 µg/mL)	3.8	–	54	–	–
CCNc1cc(N2CCN(S(=O)(=O)c3ccc(Cl)cc3)CC2)ncn1	2.7	–	–	44	95 (≈ 36.3 µg/mL)	15.9	–	> 60	–	–
CCNc1nc(C)cc(N2CCN(C(=O)c3ccc(Cl)c([N+](=O)[O-])c3)CC2)n1	> 20	–	–	> 20	> 120	0.98	–	> 60	–	–
CCNc1nc(C)cc(N2CCN(C(=O)c3ccc(C(C)(C)C)cc3)CC2)n1	19	–	–	45	120 (≈ 45.8 µg/mL)	2.4	–	> 60	–	–
CCNc1nc(C)cc(N2CCN(C(=O)c3ccc(C)cc3)CC2)n1	84	–	–	203	> 120	2.4	–	> 60	–	–
CCNc1cc(C(F)(F)F)nc(N2CCN(C(=O)c3cc(Cl)cc(Cl)c3)CC2)n1	–	–	–	> 25	3.5 (≈ 1.57 µg/mL)	> 6.3	–	18	–	–
CCNc1nc(C)cc(N2CCN(C(=O)c3cccc(I)c3)CC2)n1	> 98	–	–	> 100	> 120	1	–	42	–	–
CNc1nc(C)cc(N2CCN(S(=O)(=O)c3ccc(F)cc3)CC2)n1	9.2	–	–	99	> 120	11	–	> 60	–	–
CCNc1ccnc(N2CCN(S(=O)(=O)c3ccc(Cl)cc3)CC2)n1	2.7	–	–	28	94 (≈ 35.9 µg/mL)	10	–	19	–	–
CCNc1nc(C)cc(N2CCN(C(=O)c3ccc(Cl)c(Cl)c3)CC2)n1	81	Non-Toxic	Non-Toxic	46	111 (≈ 43.8 µg/mL)	0.57	Non-Toxic	> 60	–	–
Cc1cc(N2CCN(C(=O)c3cc(Cl)cc(Cl)c3)CC2)nc(N(C)C)n1	15	–	–	67	109 (≈ 43 µg/mL)	4.4	–	> 60	–	–
CCNc1cc(C)nc(N2CCN(S(=O)(=O)c3ccc4ccccc4c3)CC2)n1	1.7	–	–	17	90 (≈ 37 µg/mL)	10	–	20	–	–
CCNc1nc(C)cc(N2CCN(C(=O)c3ccc(C)c(C)c3)CC2)n1	68	–	–	65	118 (≈ 41.7 µg/mL)	0.95	–	> 60	–	–
CCNc1nc(C)cc(N2CCN(C(=O)c3ccc(Cl)c(C(F)(F)F)c3)CC2)n1	> 11	–	–	> 20	101 (≈ 43.2 µg/mL)	1.9	–	> 60	–	–

SMILES	selectivity ratio [1]	Activity [2]	Activity [3]	CC50 at 120 h [4] [µM]	solubility [5] [µM]	EC50 [6] [µM]	Activity [7]	half-life [8] [min]	Ratio EC50 [9]	Activity [10]
CCNc1cc(C(F)(F)F)nc(N2CCN(C(=O)c3ccc(Br)cc3)CC2)n1	–	–	–	> 25	1.2 (≈ 0.55 µg/mL)	> 6.3	–	56	–	–
Cc1cc(N(C)C)nc(N2CCN(C(=O)c3ccc(Br)cc3)CC2)n1	6.02	–	–	76	114 (≈ 46.1 µg/mL)	13	–	29	–	–
Cc1cc(N2CCN(C(=O)c3ccc(Cl)cc3)CC2)nc(NC(C)C)n1	2.6	–	–	46	115 (≈ 43 µg/mL)	18	–	> 60	–	–
CCNc1cc(C)nc(N2CCN(C(=O)c3cccc(Br)c3)CC2)n1	> 20	–	–	> 100	> 120	5.1	–	9.5	–	–
CNc1ccnc(N2CCN(S(=O)(=O)c3ccc(F)cc3)CC2)n1	20	–	–	193	> 120	9.62	–	48	–	–
CCNc1nc(C)cc(N2CCCC(NC(=O)c3cc(Cl)cc(Cl)c3)C2)n1 (configuration not stated)	< 0.12	–	–	12	22 (≈ 8.98 µg/mL)	> 100	–	44	–	–
CCNc1cc(C(F)(F)F)nc(N2CCN(C(=O)c3ccc(Cl)c(Cl)c3)CC2)n1	–	–	–	> 25	–	> 6.3	–	36	–	–
CCNc1nc(C)cc(NC2CCN(C(=O)c3cc(Cl)cc(Cl)c3)CC2)n1	3.4	–	–	47	101 (≈ 41.2 µg/mL)	14	–	> 60	–	–
CCNc1nc(C)cc(N2CCN(C(=O)c3ccc(OC)cc3)CC2)n1	97	Non-Toxic	Non-Toxic	136	> 120	1.4	Non-Toxic	> 60	–	–
CCNc1ccnc(N2CCN(C(=O)c3ccc(Cl)cc3)CC2)n1	3.1	–	–	47	> 120	15	–	> 60	–	–
CC(C)Nc1ccnc(N2CCN(S(=O)(=O)c3ccc(F)cc3)CC2)n1	–	–	–	–	100 (≈ 37.9 µg/mL)	10	–	46	–	–
Cc1cc(N2CCN(C(=O)c3ccc(Br)cc3)CC2)nc(N(C)C)n1	> 15	–	–	> 100	> 120	6.6	–	> 60	–	–
CCNc1cc(C)nc(N2CCN(C(=O)c3ccc(I)cc3)CC2)n1	> 34	–	–	> 100	116 (≈ 52.4 µg/mL)	2.9	–	> 60	–	–
CCNc1cc(C)nc(N2CCN(C(=O)c3cccc([N+](=O)[O-])c3)CC2)n1	> 24	–	–	> 100	119 (≈ 44.1 µg/mL)	4.2	–	57	–	–
CCNc1cc(C)nc(N2CCN(C(=O)c3ccc(Cl)cc3)CC2)n1	37	–	–	89	> 120	2.4	–	> 60	–	–
CCNc1nc(C)cc(N2CCN(C(=O)c3ccc([N+](=O)[O-])cc3Cl)CC2)n1	–	Non-Toxic	Non-Toxic	> 100	111 (≈ 44.9 µg/mL)	> 0.78	Non-Toxic	> 60	15.1	Dose-Dependent Effect
CCNc1nc(C)cc(N2CCN(C(=O)c3cccc(Br)c3)CC2)n1	> 107	Non-Toxic	Non-Toxic	> 100	> 120	0.94	Non-Toxic	> 60	–	–
CCNc1nc(C)cc(N2CCN(C(=O)c3cccc(Cl)c3)CC2)n1	38	–	–	248	> 120	6.6	–	> 60	–	–
Cc1nc(Cl)c(N)c(N2CCN(C(=O)c3ccc(Cl)c(Cl)c3)CC2)n1	–	–	–	–	118 (≈ 47.3 µg/mL)	9.8	–	> 60	–	–
CCNc1nc(N2CCN(C(=O)c3cc(Cl)cc(Cl)c3)CC2)cc(C(F)(F)F)n1	–	–	–	> 50	2 (≈ 0.897 µg/mL)	> 12.5	–	29	–	–
CCNc1nc(C)cc(N2CCN(Cc3ccc(F)cc3)CC2)n1	2.1	–	–	46	106 (≈ 34.9 µg/mL)	22	–	> 60	–	–
